Measurements from patent publication US7282504B2, “Kinase inhibitors” (Amgen Inc., priority 2000, dated 2007).

Tests used:
Format in all cases: biochemical
KDR-1 = molecular target: T1, KDR-1 (Homo sapiens, UniProt P35968); test: Kinase inhibition, 33P transfer to plate-bound substrate: KDR-1
T1 construct: Kinases are expressed as either kinase domains or full-length constructs; made in house
From the text: (§1) The inhibitor compounds described herein are screened in the following manner. Kinases suitable for use in the following protocol to determine kinase activity of the compounds described herein include, but are not limited to: Lck, Lyn, Src, Fyn, Syk, Zap-70, Itk, Tec, Btk, EGFR, ErbB2, Kdr, Flt-1, Flt-3, Tek, c-Met, InsR, and AKT.
(§2) Kinases are expressed as either kinase domains or full-length constructs fused to glutathione S-transferase (GST) or polyHistidine tagged fusion proteins in either E. coli or Baculovirus-High Five expression systems. They are purified to near homogeneity by affinity chromatography essentially as previously described (Lehr et al., 1996; Gish et al., 1995). In some instances, kinases are co-expressed or mixed with purified or partially purified regulatory polypeptides prior to measurement of activity.
(§3) Kinase activity and inhibition are measured essentially by established protocols (Braunwalder et al., 1996). Briefly, The transfer of ^33PO4 from ATP to the synthetic substrates poly(Glu, Tyr) 4:1 or poly(Arg, Ser) 3:1 attached to the bioactive surface of microtiter plates serves as the basis to evaluate enzyme activity. After an incubation period, the amount of phosphate transferred is measured by first washing the plate with 0.5% phosphoric acid, adding liquid scintillant, and then counting in a liquid scintillation detector. The IC50 is determined by the concentration of compound that causes a 50% reduction in the amount of ^33P incorporated onto the substrate bound to the plate.

Lck-1 = molecular target: T2, Lck-1 (Homo sapiens, UniProt P06239); test: Kinase inhibition, 33P transfer to plate-bound substrate: Lck-1
T2 construct: Kinases are expressed as either kinase domains or full-length constructs; made in house
From the text: as §1, §2, §3

Akt3-1 = molecular target: T3, Akt3-1 (Homo sapiens, UniProt Q9Y243); test: Kinase inhibition, 33P transfer to plate-bound substrate: Akt3-1
T3 construct: Kinases are expressed as either kinase domains or full-length constructs; made in house
From the text: as §1, §2, §3

ErbB2-1 = molecular target: T4, ErbB2-1 (Homo sapiens, UniProt P04626); test: Kinase inhibition, 33P transfer to plate-bound substrate: ErbB2-1
T4 construct: Kinases are expressed as either kinase domains or full-length constructs; made in house
T4 sequence (P04626 23-1255): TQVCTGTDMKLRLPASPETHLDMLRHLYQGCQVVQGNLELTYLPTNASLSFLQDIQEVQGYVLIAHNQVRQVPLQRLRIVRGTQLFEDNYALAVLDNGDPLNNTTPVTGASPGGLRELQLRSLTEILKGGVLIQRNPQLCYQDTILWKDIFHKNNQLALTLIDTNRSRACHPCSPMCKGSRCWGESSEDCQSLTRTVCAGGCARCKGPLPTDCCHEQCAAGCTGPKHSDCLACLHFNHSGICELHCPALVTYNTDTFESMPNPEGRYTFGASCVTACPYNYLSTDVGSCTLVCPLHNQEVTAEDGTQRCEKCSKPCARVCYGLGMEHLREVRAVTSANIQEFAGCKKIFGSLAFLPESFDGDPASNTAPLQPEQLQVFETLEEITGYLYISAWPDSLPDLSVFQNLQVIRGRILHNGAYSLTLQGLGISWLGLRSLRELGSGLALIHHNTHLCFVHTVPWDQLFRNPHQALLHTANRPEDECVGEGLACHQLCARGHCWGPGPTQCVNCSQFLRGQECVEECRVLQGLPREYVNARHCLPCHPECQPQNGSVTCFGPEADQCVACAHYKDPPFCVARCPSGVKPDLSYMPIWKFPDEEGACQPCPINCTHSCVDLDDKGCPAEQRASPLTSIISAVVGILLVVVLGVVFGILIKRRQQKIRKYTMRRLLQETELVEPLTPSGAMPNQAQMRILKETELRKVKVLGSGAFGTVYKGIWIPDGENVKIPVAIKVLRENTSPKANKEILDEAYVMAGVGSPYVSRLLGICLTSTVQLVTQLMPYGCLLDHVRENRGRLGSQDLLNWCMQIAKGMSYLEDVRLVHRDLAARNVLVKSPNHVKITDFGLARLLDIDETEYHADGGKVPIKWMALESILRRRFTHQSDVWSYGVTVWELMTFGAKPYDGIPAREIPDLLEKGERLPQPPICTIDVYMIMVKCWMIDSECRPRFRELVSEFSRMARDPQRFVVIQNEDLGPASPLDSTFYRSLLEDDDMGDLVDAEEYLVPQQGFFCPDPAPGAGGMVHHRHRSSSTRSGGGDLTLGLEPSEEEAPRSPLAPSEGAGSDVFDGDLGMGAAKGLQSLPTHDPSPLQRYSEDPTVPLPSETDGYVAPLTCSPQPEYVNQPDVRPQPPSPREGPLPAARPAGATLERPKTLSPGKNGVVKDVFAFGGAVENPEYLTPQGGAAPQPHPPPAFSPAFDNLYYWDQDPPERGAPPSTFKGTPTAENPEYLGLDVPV
From the text: as §1, §2, §3

PDGFRB = molecular target: T5, PDGFRB (Homo sapiens, UniProt P09619); test: Kinase inhibition, 33P transfer to plate-bound substrate: PDGFRB
T5 construct: Kinases are expressed as either kinase domains or full-length constructs; made in house
T5 sequence (P09619 33-1106, species assumed): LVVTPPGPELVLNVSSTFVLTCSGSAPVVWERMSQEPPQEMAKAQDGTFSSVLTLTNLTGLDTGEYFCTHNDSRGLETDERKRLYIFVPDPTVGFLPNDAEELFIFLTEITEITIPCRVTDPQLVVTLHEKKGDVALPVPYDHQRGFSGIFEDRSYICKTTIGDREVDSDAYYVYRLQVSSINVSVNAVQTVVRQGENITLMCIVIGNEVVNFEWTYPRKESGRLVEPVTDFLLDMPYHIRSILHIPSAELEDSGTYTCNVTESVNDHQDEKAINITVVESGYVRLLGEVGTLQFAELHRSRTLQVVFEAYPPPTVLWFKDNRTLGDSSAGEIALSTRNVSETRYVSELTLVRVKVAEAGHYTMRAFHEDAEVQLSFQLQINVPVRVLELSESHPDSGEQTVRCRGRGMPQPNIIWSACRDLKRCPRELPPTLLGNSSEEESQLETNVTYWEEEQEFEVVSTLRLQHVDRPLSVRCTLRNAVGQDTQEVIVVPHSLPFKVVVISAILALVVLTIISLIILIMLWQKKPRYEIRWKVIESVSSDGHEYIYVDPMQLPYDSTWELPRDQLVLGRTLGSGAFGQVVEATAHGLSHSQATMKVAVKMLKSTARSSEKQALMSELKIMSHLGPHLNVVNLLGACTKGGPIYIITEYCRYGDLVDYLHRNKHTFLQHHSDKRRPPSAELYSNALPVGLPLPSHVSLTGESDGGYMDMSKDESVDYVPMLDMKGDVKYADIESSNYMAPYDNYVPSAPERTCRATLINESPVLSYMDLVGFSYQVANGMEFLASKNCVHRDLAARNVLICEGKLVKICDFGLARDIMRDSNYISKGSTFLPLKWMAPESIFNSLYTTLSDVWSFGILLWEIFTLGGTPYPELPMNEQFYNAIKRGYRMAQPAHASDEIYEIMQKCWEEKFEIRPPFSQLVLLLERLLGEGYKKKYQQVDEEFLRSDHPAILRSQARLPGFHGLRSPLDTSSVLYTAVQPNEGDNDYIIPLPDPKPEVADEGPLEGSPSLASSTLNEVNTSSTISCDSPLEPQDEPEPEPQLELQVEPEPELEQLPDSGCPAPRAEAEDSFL
From the text: as §1, §2, §3

Lck-2 = molecular target: T6, Lck-2 (Homo sapiens, UniProt P06239); test: Kinase inhibition, 33P transfer to plate-bound substrate: Lck-2
T6 construct: Kinases are expressed as either kinase domains or full-length constructs; made in house
From the text: as §1, §2, §3

Zap-1 = molecular target: T7, Zap-1 (Homo sapiens, UniProt P43403); test: Kinase inhibition, 33P transfer to plate-bound substrate: Zap-1
T7 construct: Kinases are expressed as either kinase domains or full-length constructs; made in house
T7 sequence (P43403 1-619): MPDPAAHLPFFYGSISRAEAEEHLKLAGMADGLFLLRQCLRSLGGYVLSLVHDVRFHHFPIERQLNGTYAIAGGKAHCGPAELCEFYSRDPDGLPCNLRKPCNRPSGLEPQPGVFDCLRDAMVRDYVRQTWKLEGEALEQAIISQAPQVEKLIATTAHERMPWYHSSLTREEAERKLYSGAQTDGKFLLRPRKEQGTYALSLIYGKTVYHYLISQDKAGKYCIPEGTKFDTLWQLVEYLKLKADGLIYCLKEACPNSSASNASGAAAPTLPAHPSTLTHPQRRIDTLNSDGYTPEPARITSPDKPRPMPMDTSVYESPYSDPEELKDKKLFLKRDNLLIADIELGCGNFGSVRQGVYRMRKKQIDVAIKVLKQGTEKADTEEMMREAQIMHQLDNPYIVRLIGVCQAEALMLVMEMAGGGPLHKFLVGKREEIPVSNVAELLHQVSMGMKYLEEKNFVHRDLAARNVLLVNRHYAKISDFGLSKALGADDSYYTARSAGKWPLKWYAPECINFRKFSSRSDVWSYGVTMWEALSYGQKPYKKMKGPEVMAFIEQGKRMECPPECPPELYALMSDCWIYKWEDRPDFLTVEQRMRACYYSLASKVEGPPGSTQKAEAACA
From the text: as §1, §2, §3

Itk-1 = molecular target: T8, Itk-1 (Homo sapiens, UniProt Q08881); test: Kinase inhibition, 33P transfer to plate-bound substrate: Itk-1
T8 construct: Kinases are expressed as either kinase domains or full-length constructs; made in house
T8 sequence (Q08881 1-620): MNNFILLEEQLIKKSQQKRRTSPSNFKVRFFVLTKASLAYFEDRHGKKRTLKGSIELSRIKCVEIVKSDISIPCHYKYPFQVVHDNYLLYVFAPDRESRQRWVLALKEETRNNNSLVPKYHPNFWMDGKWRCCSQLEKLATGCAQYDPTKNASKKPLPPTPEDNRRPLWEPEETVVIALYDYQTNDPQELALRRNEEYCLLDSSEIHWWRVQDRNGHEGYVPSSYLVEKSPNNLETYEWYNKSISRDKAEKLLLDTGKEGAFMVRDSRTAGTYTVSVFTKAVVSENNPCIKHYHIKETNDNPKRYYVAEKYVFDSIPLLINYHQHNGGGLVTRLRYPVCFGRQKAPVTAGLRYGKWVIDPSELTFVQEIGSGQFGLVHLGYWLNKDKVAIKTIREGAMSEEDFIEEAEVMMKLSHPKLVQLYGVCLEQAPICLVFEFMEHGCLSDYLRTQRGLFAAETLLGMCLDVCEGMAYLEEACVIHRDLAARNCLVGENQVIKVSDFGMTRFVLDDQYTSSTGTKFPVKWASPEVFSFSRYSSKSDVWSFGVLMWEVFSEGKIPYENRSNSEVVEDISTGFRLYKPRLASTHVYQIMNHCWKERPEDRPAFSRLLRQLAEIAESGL
From the text: as §1, §2, §3

EGFR-1 = molecular target: T9, EGFR-1 (Homo sapiens, UniProt P00533); test: Kinase inhibition, 33P transfer to plate-bound substrate: EGFR-1
T9 construct: Kinases are expressed as either kinase domains or full-length constructs; made in house
From the text: as §1, §2, §3

IGFR-1 = molecular target: T10, IGFR-1 (Homo sapiens, UniProt P08069); test: Kinase inhibition, 33P transfer to plate-bound substrate: IGFR-1
T10 construct: Kinases are expressed as either kinase domains or full-length constructs; made in house
T10 sequence (P08069 31-1367): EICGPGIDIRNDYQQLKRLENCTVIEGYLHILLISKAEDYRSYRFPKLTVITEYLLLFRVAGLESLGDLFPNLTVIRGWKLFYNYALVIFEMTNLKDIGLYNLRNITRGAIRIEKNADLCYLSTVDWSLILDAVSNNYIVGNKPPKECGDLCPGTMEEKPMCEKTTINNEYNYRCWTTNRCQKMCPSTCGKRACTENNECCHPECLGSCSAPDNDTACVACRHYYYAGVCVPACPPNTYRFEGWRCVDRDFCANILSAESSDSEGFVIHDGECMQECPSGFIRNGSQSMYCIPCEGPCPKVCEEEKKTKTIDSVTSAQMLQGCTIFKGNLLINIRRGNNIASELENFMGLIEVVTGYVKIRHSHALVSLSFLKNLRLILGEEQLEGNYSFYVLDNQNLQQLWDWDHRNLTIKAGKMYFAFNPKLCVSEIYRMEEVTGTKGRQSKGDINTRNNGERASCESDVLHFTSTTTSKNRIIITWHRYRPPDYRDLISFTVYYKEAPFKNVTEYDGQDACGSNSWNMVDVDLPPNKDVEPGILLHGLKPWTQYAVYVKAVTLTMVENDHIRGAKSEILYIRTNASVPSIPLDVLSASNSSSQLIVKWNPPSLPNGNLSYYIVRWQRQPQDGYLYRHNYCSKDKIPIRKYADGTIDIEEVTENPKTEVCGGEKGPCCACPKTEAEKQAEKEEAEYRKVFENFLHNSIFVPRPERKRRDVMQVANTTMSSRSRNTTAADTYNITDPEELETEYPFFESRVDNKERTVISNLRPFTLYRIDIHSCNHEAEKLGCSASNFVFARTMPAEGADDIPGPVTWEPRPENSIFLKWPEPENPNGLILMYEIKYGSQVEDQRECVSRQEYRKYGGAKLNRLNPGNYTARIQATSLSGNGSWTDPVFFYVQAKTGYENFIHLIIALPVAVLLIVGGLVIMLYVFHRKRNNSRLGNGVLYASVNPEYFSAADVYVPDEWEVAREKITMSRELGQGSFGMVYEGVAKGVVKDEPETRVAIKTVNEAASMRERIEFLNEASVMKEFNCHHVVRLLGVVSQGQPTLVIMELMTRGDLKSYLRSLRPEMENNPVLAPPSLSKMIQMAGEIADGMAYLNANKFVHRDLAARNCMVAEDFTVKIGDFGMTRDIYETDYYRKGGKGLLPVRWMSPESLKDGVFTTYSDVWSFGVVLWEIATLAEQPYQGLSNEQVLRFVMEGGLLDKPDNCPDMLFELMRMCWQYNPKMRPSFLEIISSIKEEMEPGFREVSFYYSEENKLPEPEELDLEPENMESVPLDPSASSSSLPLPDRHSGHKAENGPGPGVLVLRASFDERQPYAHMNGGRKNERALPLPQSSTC
From the text: as §1, §2, §3

Met-1 = molecular target: T11, Met-1 (Homo sapiens, UniProt P08581); test: Kinase inhibition, 33P transfer to plate-bound substrate: Met-1
T11 construct: Kinases are expressed as either kinase domains or full-length constructs; made in house
From the text: as §1, §2, §3

Src-1 = molecular target: T12, Src-1 (Homo sapiens, UniProt P12931); test: Kinase inhibition, 33P transfer to plate-bound substrate: Src-1
T12 construct: Kinases are expressed as either kinase domains or full-length constructs; made in house
From the text: as §1, §2, §3

Fyn-1 = molecular target: T13, Fyn-1 (Homo sapiens, UniProt P06241); test: Kinase inhibition, 33P transfer to plate-bound substrate: Fyn-1
T13 construct: Kinases are expressed as either kinase domains or full-length constructs; made in house
From the text: as §1, §2, §3

InsR-1 = molecular target: T14, InsR-1 (Homo sapiens, UniProt P06213); test: Kinase inhibition, 33P transfer to plate-bound substrate: InsR-1
T14 construct: Kinases are expressed as either kinase domains or full-length constructs; made in house
From the text: as §1, §2, §3

Flt1-1 = molecular target: T15, Flt1-1 (Homo sapiens, UniProt P17948); test: Kinase inhibition, 33P transfer to plate-bound substrate: Flt1-1
T15 construct: Kinases are expressed as either kinase domains or full-length constructs; made in house
From the text: as §1, §2, §3

Ret-1 = molecular target: T16, Ret-1 (Homo sapiens, UniProt P07949); test: Kinase inhibition, 33P transfer to plate-bound substrate: Ret-1
T16 construct: Kinases are expressed as either kinase domains or full-length constructs; made in house
From the text: as §1, §2, §3

FGFR1-1 = molecular target: T17, FGFR1-1 (Homo sapiens, UniProt P11362); test: Kinase inhibition, 33P transfer to plate-bound substrate: FGFR1-1
T17 construct: Kinases are expressed as either kinase domains or full-length constructs; made in house
From the text: as §1, §2, §3

T1 sequence (P35968 20-1356): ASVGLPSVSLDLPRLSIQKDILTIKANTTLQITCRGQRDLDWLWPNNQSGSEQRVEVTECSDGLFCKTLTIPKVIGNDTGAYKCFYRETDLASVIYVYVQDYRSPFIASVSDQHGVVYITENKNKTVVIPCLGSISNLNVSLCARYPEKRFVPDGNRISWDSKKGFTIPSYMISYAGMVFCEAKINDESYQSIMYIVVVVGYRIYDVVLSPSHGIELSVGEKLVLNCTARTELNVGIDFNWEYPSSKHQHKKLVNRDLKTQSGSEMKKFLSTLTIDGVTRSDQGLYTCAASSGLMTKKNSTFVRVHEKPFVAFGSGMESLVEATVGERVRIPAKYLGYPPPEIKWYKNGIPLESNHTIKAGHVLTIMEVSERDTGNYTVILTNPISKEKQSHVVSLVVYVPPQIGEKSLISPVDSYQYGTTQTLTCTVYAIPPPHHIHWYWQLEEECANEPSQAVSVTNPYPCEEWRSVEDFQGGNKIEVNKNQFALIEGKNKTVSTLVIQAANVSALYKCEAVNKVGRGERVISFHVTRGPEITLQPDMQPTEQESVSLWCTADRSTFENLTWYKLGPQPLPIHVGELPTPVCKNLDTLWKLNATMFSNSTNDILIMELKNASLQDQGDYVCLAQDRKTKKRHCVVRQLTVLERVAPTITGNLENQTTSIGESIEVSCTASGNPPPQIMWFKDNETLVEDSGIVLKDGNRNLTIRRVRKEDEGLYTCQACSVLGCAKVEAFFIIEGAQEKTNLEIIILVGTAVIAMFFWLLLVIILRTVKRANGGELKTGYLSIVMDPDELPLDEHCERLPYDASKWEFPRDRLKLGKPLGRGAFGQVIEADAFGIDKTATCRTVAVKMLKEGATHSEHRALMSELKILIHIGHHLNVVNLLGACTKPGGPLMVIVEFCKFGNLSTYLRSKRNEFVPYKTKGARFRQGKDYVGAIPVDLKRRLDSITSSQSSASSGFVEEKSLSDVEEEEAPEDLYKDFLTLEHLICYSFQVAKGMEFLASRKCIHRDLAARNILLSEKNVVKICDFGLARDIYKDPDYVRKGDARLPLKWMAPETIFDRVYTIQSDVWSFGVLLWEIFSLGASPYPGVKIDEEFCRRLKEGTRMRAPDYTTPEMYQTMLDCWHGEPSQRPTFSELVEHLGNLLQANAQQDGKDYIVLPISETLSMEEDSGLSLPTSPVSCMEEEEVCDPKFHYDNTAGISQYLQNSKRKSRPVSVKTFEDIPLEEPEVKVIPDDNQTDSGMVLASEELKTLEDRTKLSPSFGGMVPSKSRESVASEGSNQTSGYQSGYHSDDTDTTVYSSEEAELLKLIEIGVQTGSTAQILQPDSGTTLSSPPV

Row | Compound | IC50 (KDR-1) [µM] | IC50 (Lck-1) [µM] | IC50 (Akt3-1) [µM] | IC50 (ErbB2-1) [µM] | IC50 (PDGFRB) [µM] | IC50 (Lck-2) [µM] | IC50 (Zap-1) [µM] | IC50 (Itk-1) [µM] | IC50 (EGFR-1) [µM] | IC50 (IGFR-1) [µM] | IC50 (Met-1) [µM] | IC50 (Src-1) [µM] | IC50 (Fyn-1) [µM] | IC50 (InsR-1) [µM] | IC50 (Flt1-1) [µM] | IC50 (Ret-1) [µM] | IC50 (FGFR1-1) [µM]
1 | COc1cc(Nc2nccc(Nc3ccc4c(cnn4Cc4ccccc4)c3)n2)cc(OC)c1OC [Compound 36] | < 1.5 | < 1.5 | ≥ 10 | < 1.5 | < 1.5 | < 1.5 | 5 to 10 | < 1.5 | < 1.5 | < 1.5 | 1.5 to 5 |  |  |  |  |  | 
2 | Cc1cccc(Nc2nccc(Nc3cccc(Br)c3)n2)c1 [Compound 54] | 5 to 10 | ≥ 10 | ≥ 10 | ≥ 10 | 5 to 10 | ≥ 10 |  | ≥ 10 | ≥ 10 | < 1.5 | ≥ 10 |  |  |  |  |  | 
3 | COc1ccc(Nc2ccnc(Nc3ccc(OC)c(OC)c3)n2)cc1OC [Compound 56] | < 1.5 | 5 to 10 | ≥ 10 | ≥ 10 | < 1.5 | < 1.5 | ≥ 10 | ≥ 10 | ≥ 10 | < 1.5 | ≥ 10 | 1.5 to 5 | 5 to 10 | ≥ 10 | 1.5 to 5 | 1.5 to 5 | 1.5 to 5
4 | Clc1cccc(Nc2ccnc(Nc3cccc(Cl)c3)n2)c1 [Compound 57] | < 1.5 | ≥ 10 | ≥ 10 | ≥ 10 | 5 to 10 | < 1.5 | ≥ 10 | 5 to 10 | ≥ 10 | < 1.5 | 1.5 to 5 |  |  | 5 to 10 | 5 to 10 | < 1.5 | 5 to 10
5 | Cc1cccc(Nc2ccnc(Nc3cccc(Br)c3)n2)c1 [Compound 60] | 1.5 to 5 | ≥ 10 | ≥ 10 |  | 1.5 to 5 | < 1.5 |  | 1.5 to 5 | ≥ 10 | < 1.5 | 5 to 10 |  |  |  |  |  | 

The remaining lines, values ahead:

Row | IC50 (KDR-1) [µM] | IC50 (Lck-1) [µM] | IC50 (Akt3-1) [µM] | IC50 (ErbB2-1) [µM] | IC50 (PDGFRB) [µM] | IC50 (Lck-2) [µM] | IC50 (Zap-1) [µM] | IC50 (Itk-1) [µM] | IC50 (EGFR-1) [µM] | IC50 (IGFR-1) [µM] | IC50 (Met-1) [µM] | IC50 (Src-1) [µM] | IC50 (Fyn-1) [µM] | IC50 (InsR-1) [µM] | IC50 (Flt1-1) [µM] | IC50 (Ret-1) [µM] | IC50 (FGFR1-1) [µM] | Compound
6 | 1.5 to 5 | < 1.5 | ≥ 10 | < 1.5 | < 1.5 | < 1.5 | ≥ 10 | 1.5 to 5 | 1.5 to 5 | < 1.5 | 1.5 to 5 |  |  |  |  |  |  | COc1cc(Nc2ccnc(Nc3ccc4c(cnn4Cc4ccccc4)c3)n2)cc(OC)c1OC [Compound 37]
7 | 5 to 10 | 5 to 10 |  |  |  | < 1.5 |  | 5 to 10 | ≥ 10 |  | 5 to 10 |  |  |  |  |  |  | COc1cc(Nc2ccnc(Nc3ccc(OCc4ccccc4)cc3)n2)cc(OC)c1OC [Compound 58]
8 | 5 to 10 | 5 to 10 |  |  |  | < 1.5 |  | 5 to 10 | 5 to 10 |  | 5 to 10 |  |  |  |  |  |  | COc1cc(Nc2ccnc(Nc3ccc(Oc4ccccc4)cc3)n2)cc(OC)c1OC [Compound 59]
